Laboratory results reported in patent US8518953B2, “Aminopyrimidines useful as inhibitors of protein kinases” (Vertex Pharmaceuticals Incorporated, priority 2007, dated 2013).

Experiments:
GSK3β TYR 216 = target: T1, GSK3β TYR 216 (Homo sapiens, UniProt P49841); test: GSK3β p-TYR Inhibition Assay (western blotting of Jurkat cells); format: cell-based; settings: western blot, read-out: GSK3b pTYR 216: IC50
T1 construct: western blotting of Jurkat cells dosed with the compounds; endogenous in cells; host or cells: Jurkat cells
Protocol: (§1) Compounds are screened for their ability to inhibit the phosphorylation of tyrosine (TYR) residues through the use of western blotting of Jurkat cells dosed with the compounds. The phosphorylation of the specific TYR residues tested are GSK3α TYR 279 and GSK3β TYR 216.
(§2) Jurkat cells are seeded at a density of 2×10^5 cells/well in a 12 well dish in starvation media (RPMI+1% FBS+P/S). Following starvation for 16 hours, the compound is dosed into each well at a final DMSO concentration of 0.3% and cells are incubated o/n at 37° C. 5% CO2. The next day, cells are spun down at 1500 rpm, washed with PBS, and lysed in 100 uL Laemli sample buffer with β-mercaptoethanol.
(§3) 15 microliters (uL) of cell lysates are loaded onto a 10% tris-glycine gel and run at 120 v for 2 hours or until dye front runs off of the gel. The protein is then transferred onto a PVDF membrane at 100 v for 60 min. PBST (PBS containing 0.1% Tween 20, such as 1 ml Tween per 1 L of PBS) is then made up and used for all washes and antibody incubations. The blot is blocked in 5% nonfat milk PBST for one hour.
(§4) The primary antibody (GSK-3α/β pTYR 279/216 at 1:1000 dilution Upstate cat#05-413) is then added in […] PBST overnight at 4° C. with gentle rocking. The blot is then washed in PBST for 5 min. This is then repeated 4 times. […]

GSK3α TYR 279 = target: T2, GSK3α TYR 279 (Homo sapiens, UniProt P49840); test: GSK-3α p-TYR Inhibition Assay (western blotting of Jurkat cells); format: cell-based; settings: western blot, read-out: GSK3a pTYR 279: IC50
T2 construct: western blotting of Jurkat cells dosed with the compounds; endogenous in cells; host or cells: Jurkat cells
Protocol: as §1, §2, §3, §4

T2 sequence (P49840 whole entry): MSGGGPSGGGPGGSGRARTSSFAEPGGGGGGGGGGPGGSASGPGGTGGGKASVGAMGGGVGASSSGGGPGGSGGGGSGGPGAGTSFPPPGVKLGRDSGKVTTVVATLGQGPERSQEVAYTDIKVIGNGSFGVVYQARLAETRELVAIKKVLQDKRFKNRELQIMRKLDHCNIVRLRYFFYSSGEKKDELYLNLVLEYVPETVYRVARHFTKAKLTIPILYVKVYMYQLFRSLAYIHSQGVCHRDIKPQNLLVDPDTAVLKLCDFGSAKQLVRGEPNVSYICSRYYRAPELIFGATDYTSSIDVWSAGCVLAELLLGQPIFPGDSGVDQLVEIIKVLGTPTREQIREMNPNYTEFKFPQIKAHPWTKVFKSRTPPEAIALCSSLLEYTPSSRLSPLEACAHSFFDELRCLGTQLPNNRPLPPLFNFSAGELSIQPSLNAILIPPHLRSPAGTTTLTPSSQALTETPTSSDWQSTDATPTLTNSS
T1 sequence (P49841 whole entry): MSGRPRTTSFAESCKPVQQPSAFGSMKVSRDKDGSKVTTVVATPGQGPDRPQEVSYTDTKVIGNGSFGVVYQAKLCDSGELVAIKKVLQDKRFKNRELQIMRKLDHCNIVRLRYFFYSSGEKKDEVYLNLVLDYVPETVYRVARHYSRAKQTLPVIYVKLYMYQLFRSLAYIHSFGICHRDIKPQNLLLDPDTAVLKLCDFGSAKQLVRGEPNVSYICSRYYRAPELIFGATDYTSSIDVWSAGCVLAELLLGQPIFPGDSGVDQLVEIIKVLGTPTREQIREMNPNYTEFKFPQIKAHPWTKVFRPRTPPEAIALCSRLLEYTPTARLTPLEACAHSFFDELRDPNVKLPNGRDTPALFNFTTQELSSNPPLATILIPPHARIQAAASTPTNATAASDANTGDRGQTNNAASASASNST

- IC50 (GSK3β TYR 216): 3 nM
- IC50 (GSK3α TYR 279): < 0.5 nM
Structure (SMILES): Cc1nc(-c2ccccc2Cl)nc(Nc2n[nH]c3ncc(F)cc23)c1C [Compound I-1, N-(2-(2-chlorophenyl)-5,6-dimethylpyrimidin-4-yl)-5-fluoro-1H-pyrazolo[3,4-b]pyridin-3-amine]
